The values that follow come from PubChem BioAssay (NCI).

Some test systems named below: A498 renal; ACHN renal; HCC-2998 colon; HOP-62 NSCLC; HOP-92 NSCLC; NCI-H460 lung; PC-3 prostate; SF-539 CNS; T-47D breast; U251 CNS.
Holding throughout (test): NCI tumour cell line growth inhibition, 48 h

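Five concentrations, 48 hours, 96-well plates. Abbreviation: GI50, concentration required for 50% inhibition of growth. TGI is the concentration that stops growth completely.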

Turning to `Nc1n[nH]c2cc(F)c([C@@H]3Nc4ccc5[nH]ncc5c4[C@H]4C5CCC(C5)[C@@H]34)cc12` (stereo not given in full), the GI50 was 0.0787 µM in the assay on A498 renal; 0.231 µM with ACHN renal; 0.177 µM in the assay on HCC-2998 colon; 0.222 µM in the assay on HOP-62 NSCLC; 0.24 µM in the assay on HOP-92 NSCLC; 0.177 µM with NCI-H460 lung. Further, the GI50 with PC-3 prostate was 0.238 µM; in the assay with SF-539 CNS it was 0.115 µM; in the assay on T-47D breast, 9.96 µM; in the assay with U251 CNS it was 0.189 µM. For the same compound, the TGI with A498 renal worked out at 0.288 µM; in the assay on ACHN renal, 26.1 µM; in the assay with HCC-2998 colon, 1.93 µM; in the assay with HOP-62 NSCLC, 9.12 µM; with HOP-92 NSCLC, 9.01 µM; in the assay with NCI-H460 lung, 5.86 µM. Besides, the TGI with PC-3 prostate was 18.7 µM; in the assay on SF-539 CNS, 0.322 µM; in the assay with T-47D breast it was more than 50 µM; with U251 CNS it was 9.3 µM.

Take `CCN1C(=O)N(c2ccccc2)C2NC(=S)N(/N=C/C=C/c3ccccc3OC)C21` (stereo not given): the GI50 was 0.0311 µM with A498 renal; 0.134 µM in the assay with ACHN renal; 0.111 µM in the assay with HCC-2998 colon; 0.127 µM in the assay on HOP-62 NSCLC; 2.15 µM with HOP-92 NSCLC; 0.111 µM in the assay with NCI-H460 lung. In addition, the GI50 in the assay with PC-3 prostate was 0.111 µM; in the assay on SF-539 CNS, 0.199 µM; in the assay with T-47D breast, 4.12 µM; in the assay on U251 CNS it was 0.106 µM. Besides, the TGI was 0.653 µM in the assay with A498 renal; more than 60.8 µM with ACHN renal; more than 100 µM in the assay with HCC-2998 colon; more than 58.5 µM in the assay on HOP-62 NSCLC; more than 85 µM in the assay with HOP-92 NSCLC; more than 36.2 µM in the assay on NCI-H460 lung. Besides, the TGI is more than 89.3 µM in the assay on PC-3 prostate, 0.744 µM with SF-539 CNS, more than 100 µM with T-47D breast and more than 43.8 µM with U251 CNS.

In the case of `O=C(/C(=C/c1ccc([N+](=O)[O-])cc1)SCc1ccccc1)c1ccc(Cl)cc1`, the GI50 in the assay with A498 renal is 13.2 µM; in the assay on ACHN renal it was 1.97 µM; in the assay with HCC-2998 colon it was 1.97 µM; with HOP-62 NSCLC, 4.52 µM; in the assay with HOP-92 NSCLC it was 2.28 µM; with NCI-H460 lung it was 5.34 µM. Besides, the GI50 in the assay on PC-3 prostate is 2.35 µM; with SF-539 CNS it was 2.64 µM; in the assay with T-47D breast it was 2.41 µM; in the assay with U251 CNS, 1.88 µM. Besides, the TGI with A498 renal amounted to 28.2 µM; in the assay with ACHN renal, 4.16 µM; with HCC-2998 colon, 3.89 µM; with HOP-62 NSCLC, 17.7 µM; in the assay on HOP-92 NSCLC, 9.46 µM; in the assay on NCI-H460 lung it was 20.3 µM. Further, the TGI in the assay with PC-3 prostate came out at 5.43 µM; in the assay with SF-539 CNS, 8.2 µM; in the assay with T-47D breast, 7.46 µM; in the assay with U251 CNS, 4.09 µM.

For `CC(C)c1cc2c(cc1S(=O)(=O)O)[C@@]1(C)CCC[C@@](C)(C(=O)O)C1CC2` (stereo not given in full), the TGI in the assay on A498 renal, in the assay on ACHN renal, in the assay on HCC-2998 colon, in the assay with HOP-62 NSCLC, in the assay on HOP-92 NSCLC and in the assay with NCI-H460 lung was more than 100 µM in each case. The TGI in the assay on PC-3 prostate, in the assay on SF-539 CNS, in the assay on T-47D breast and with U251 CNS was more than 100 µM throughout.
